Like-named read-outs stand apart in the source and are kept apart here.
Biological target: T1, human recombinant COX2 (hCOX2) (UniProt P35354)
T1 sequence (P35354 1-604): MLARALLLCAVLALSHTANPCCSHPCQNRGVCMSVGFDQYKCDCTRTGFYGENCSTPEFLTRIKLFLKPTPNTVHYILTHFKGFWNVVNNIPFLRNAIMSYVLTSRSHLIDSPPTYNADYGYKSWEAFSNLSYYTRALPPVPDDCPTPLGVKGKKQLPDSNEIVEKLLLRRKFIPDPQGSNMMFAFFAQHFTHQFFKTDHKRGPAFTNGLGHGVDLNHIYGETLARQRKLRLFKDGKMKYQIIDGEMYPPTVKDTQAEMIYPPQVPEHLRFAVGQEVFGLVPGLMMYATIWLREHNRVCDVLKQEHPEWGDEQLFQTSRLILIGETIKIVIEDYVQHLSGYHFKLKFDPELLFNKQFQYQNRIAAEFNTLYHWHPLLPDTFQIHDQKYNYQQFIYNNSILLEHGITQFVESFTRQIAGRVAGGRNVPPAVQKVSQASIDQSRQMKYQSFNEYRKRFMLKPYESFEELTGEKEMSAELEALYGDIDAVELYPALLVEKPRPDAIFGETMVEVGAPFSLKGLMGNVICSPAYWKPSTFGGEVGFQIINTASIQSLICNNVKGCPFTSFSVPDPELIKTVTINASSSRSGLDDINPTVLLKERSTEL
Assay: LCMS-based COX2 enzymatic inhibition assay (PGE2 quantification)
Type: biochemical
Parameters: COX2 2 minutes pge2/pge2d4 area ratio Avg; other: 2 minutes; readout pge2/pge2d4 area ratio; average; COX2 2 minutes pge2/pge2d4 area ratio Avg; LLE; average LLE; COX2 2 minutes pge2 area (counts) Avg; readout pge2 area (counts); other: 2 min; "ovine COX2 (oCOX2), human recombinant COX2 (hCOX2)"
Conditions: for COX2 2 minutes pge2/pge2d4 area ratio Avg. LLE / COX2 2 minutes pge2 area (counts) Avg. LLE / COX2 10 minutes pge2 area (counts) Avg. LLE: average LLE; for IC50: average
Method: We have adapted a previously reported cyclooxygenase enzymatic assay utilizing LCMS quantification of PGE2 as the product of COX-1 and COX2 catalyzed conversion of arachidonic acid to evaluate the binding properties of newly synthesized ligands [Cao, 2011]. These optimized and miniaturized (384-well plates) LCMS-based COX-1 and COX2 enzymatic assays enabled us to quickly evaluate newly synthesized ligands for COX2 binding affinity and selectivity vs COX-1. Using a shorter ligand-enzyme incubation time in the LCMS assay (2 minutes vs 10 minutes) also permitted us to prioritize ligands with faster binding kinetics. Considering the relatively slow on-rate kinetics of known coxibs, due to their 3-step binding mechanism [Marnett, 2009], we believe that optimizing this critical parameter will be key to the successful development of a COX2 PET tracer. Using these enzymatic assays, we have evaluated>200 newly synthesized ligands against COX2 and >20 ligands against COX-1. Another critical property necessary for a good PET radiotracer is to have low non-specific binding (NSB) to increase the free fraction and maximize the signal to noise ratio. This property can be evaluated using in-vitro protein binding assays, and we have now evaluated>50 newly synthesized ligands in mouse, rat and human plasma protein binding (PPB) assays as well as >15 ligands in a mouse brain protein binding (BPB) assay.
Ovine COX-1 (oCOX-1), ovine COX2 (oCOX2), human recombinant COX2 (hCOX2), arachidonic acid, PGE2, d4-PGD2, and […] (labeled with deuterium atoms at positions 3 and 4) were purchased from Cayman Chemicals (Ann Arbor, Mich.). The cofactors (−)epinephrine and hematin, and the COX inhibitors indomethacin, resveratrol and diclofenac were purchased from Sigma-Aldrich (St. Louis, Mo.). Celecoxib was purchased from 3B PharmaChem International (Wuhan, China). All organic solvents were HPLC grade or better and were purchased from Thermo Fisher (Hanover Park, Ill.). Formic acid was purchased from EMD Chemicals (San Diego, Calif.). Purified water was prepared by using a Millipore Milli-Q purification system (Millipore, Billerica, Mass.). All other chemicals and solvents were ACS reagent grade, unless stated otherwise.
In an Eppendorf tube, 146 μL of 100 mM Tris.HCl (pH 8.0) buffer, 2 μL of 100 μM hematin (co-factor) and 10 μL of 40 mM L-epinephrine (co-factor) were mixed at room temperature. Next, 20 μL of Tris.HCl (pH 8.0) buffer containing 0.2 μg COX2 or 0.1 μg COX-1 (approximately 1 unit of enzyme; 1 unit COX utilizes 1 nmol 02/mg/min at 37° C.) was added, and the solution was incubated at room temperature for 2 min. A 2 μL aliquot of the COX inhibitor in DMSO was added to the enzyme solution and preincubated at 37° C. for 10 min. Negative controls were identical except that 2 μL aliquots of DMSO without inhibitor were used instead.
Each COX reaction was initiated by adding 20 μL of arachidonic acid in Tris.HCl (pH 8.0) buffer to give a final concentration of 5 μM; and the reaction was terminated after 2 min by adding 20 μL of 2.0 M HCl. The surrogate standards d4-PGE2 and d4-PGD2 (10 μL aliquot of 50 ng/mL solution in methanol) were added to correct for errors or degradation during sample handling and for variation in injection volume or instrument response during LC-MS-MS. After 30 min, PGE2, PGD2 and their surrogate standards were extracted from each incubation mixture using 800 μL hexane/ethyl acetate (50:50, v/v). The organic phase was removed, evaporated to dryness, and reconstituted in 100 μL methanol/water (50:50, v/v) for analysis using LC-MS-MS.
The concentration of PGE2 in each sample was measured using LC-MS-MS, and the percent of COX inhibition by each test solution was determined by comparing the amount of PGE2 produced in the experiment with that produced in the negative control incubation. The formation of PGD2 was measured for quality control purposes, since the levels of PGD2 should be proportional to those of PGE2. […]

[1] = 2 minutes, readout pge2/pge2d4 area ratio
[2] = 2 minutes, readout pge2/pge2d4 area ratio, read-out: COX2 2 minutes pge2/pge2d4 area ratio Avg. IC50
[3] = 2 minutes, readout pge2 area (counts)
[4] = 2 minutes, readout pge2 area (counts), read-out: COX2 2 minutes pge2 area (counts) Avg. IC50
[5] = read-out: COX2 2 minutes pge2/pge2d4 area ratio Avg. IC50 (microM), 2 minutes, readout pge2/pge2d4 area ratio
[6] = 10 minutes, readout pge2 area (counts)
[7] = 10 minutes, readout pge2 area (counts), read-out: COX2 10 minutes pge2 area (counts) Avg. IC50

COX2 2 minutes pge2/pge2d4 area ratio Avg. LLE [1]	IC50 [2] [µM]	COX2 2 minutes pge2 area (counts) Avg. LLE [3]	IC50 [4] [µM]	Compound	IC50 [5] [µM]	COX2 10 minutes pge2 area (counts) Avg. LLE [6]	IC50 [7] [µM]
5.0904	0.104	5.034	0.131	CS(=O)(=O)c1ccc(-c2cnnc(NCc3cccs3)n2)cc1 [Compound 114]			
3.111	4.01	3.485	1.93	CS(=O)(=O)c1ccc(-c2cnnc(OCc3ccco3)c2)cc1 [Compound 255]			
				CS(=O)(=O)c1ccc(-c2cncc(N3CCC4(CCCC4)CC3)n2)cc1 [Compound 319]	5.2		
4.9351	0.772	4.813	1.09	CS(=O)(=O)c1ccc(-c2cncc(SCc3ccno3)n2)cc1 [Compound 193]			
3.19	0.532	3.2105	0.52	CS(=O)(=O)c1ccc(-c2cnc3ccn(Cc4nccs4)c3n2)cc1 [Compound 176]			
	0.207		0.219	CS(=O)(=O)c1ccc(-n2nnc3ccc(NCc4cccs4)nc32)cc1 [Compound 139]			
	0.0402		0.041	CS(=O)(=O)c1ccc(-c2coc3ccc(NCc4ccco4)nc23)cc1 [Compound 68]			
2.958	2.45	2.953	3.06	CS(=O)(=O)c1ccc(-c2cnnc(NCc3cccs3)c2)cc1 [Compound 233]			
3.082	3.7	2.9649	4.84	CS(=O)(=O)c1ccc(-c2cccc([S@+]([O-])Cc3cccs3)n2)cc1 [Compound 251]			
				CS(=O)(=O)c1ccc(-c2cnc3cn(Cc4cccs4)nc3c2)cc1 [Compound 317]	5.2		
4.842	0.226	4.928	0.216	CS(=O)(=O)c1ccc(-c2cncc(OCc3ccco3)n2)cc1 [Compound 143]			
4.315	0.627	4.316	0.616	CS(=O)(=O)c1ccc(-c2cncc(SC[C@@H]3CCCO3)n2)cc1 (single isomer, unassigned) [Compound 186]			
				COc1cncc(-c2ccc(S(C)(=O)=O)cc2)n1 [Compound 299]	5.2	5.551	0.489
	1.51		1.19	CO/N=C(/c1ccc2ccn(-c3ccc(S(C)(=O)=O)cc3)c2n1)c1cccs1 [Compound 214]			
3.328	2	3.249	2.4	CS(=O)(=O)c1ccc(-c2cncc(CCc3cccs3)n2)cc1 [Compound 225]			
4.956	0.103	4.897	0.122	CS(=O)(=O)c1ccc(-c2cccc(NCc3ccoc3)n2)cn1 [Compound 113]			
				CN1CC[C@H](CNc2cncc(-c3ccc(S(C)(=O)=O)cc3)n2)C1 [Compound 307]	5.2		
	0.0305		0.0329	CS(=O)(=O)c1ccc(-n2ccc3ccc(Cc4cccs4)nc32)cc1 [Compound 56]			
				CS(=O)(=O)c1ccc(-c2cccc(NC(=O)c3cccs3)n2)cc1 [Compound 302]	5.2		
				CS(=O)(=O)c1ccc(-c2cncc(N3CCc4ccccc4C3)n2)cc1 [Compound 324]	5.2		
3.969	0.951	4.01	0.832	Cn1nccc1CNc1cccc(-c2ccc(S(C)(=O)=O)cc2)n1 [Compound 197]			
5.5926	0.0916	5.699	0.0665	NS(=O)(=O)c1ccc(-c2cncc(NCc3cccs3)n2)cc1 [Compound 106]			
	0.57		0.457	CS(=O)(=O)c1ccc(-n2cnc3ccc(NCc4cccs4)nc32)cc1 [Compound 184]			
3.568	0.142	3.634	0.122	CS(=O)(=O)c1ccc(-n2ccc3ncc(NCc4cccs4)nc32)cc1 [Compound 126]			
				CC(C)(C)OC(=O)N(c1ccoc1)c1cccc(-c2ccc(S(C)(=O)=O)cc2)n1 [Compound 296]	5.2		

Compound	COX2 2 minutes pge2/pge2d4 area ratio Avg. LLE [1]	IC50 [2] [µM]	COX2 2 minutes pge2 area (counts) Avg. LLE [3]	IC50 [4] [µM]	IC50 [5] [µM]	COX2 10 minutes pge2 area (counts) Avg. LLE [6]	IC50 [7] [µM]
C[C@@H](Nc1cccc(-c2ccc(S(C)(=O)=O)cc2)n1)c1ccco1 (single isomer, unassigned) [Compound 274]	1.914		1.914		5.2		
CS(=O)(=O)c1ccc(-c2cncc(N3Cc4cccnc4C3)n2)cc1 [Compound 328]			4.414		5.2		
CS(=O)(=O)c1ccc(-c2cnc3cn(Cc4cccs4)nc3n2)cc1 [Compound 288]	2.844		2.844		5.2		
CS(=O)(=O)c1ccc(-c2ccnc(OCc3cccs3)c2)cc1 [Compound 267]	1.454		1.6998	2.95	5.2		
CN(C)c1cncc(-c2ccc(S(C)(=O)=O)cc2)n1 [Compound 278]	4.524		4.672	3.7	5.2	4.674	3.68

Source: patent US20220348590A1, “CYCLOOXYGENASE-2 INHIBITORS AND USES THEREOF” (The Board Institute, Inc., priority 2019, published 2022)
